How the values were obtained:
haarlosen Ratten = assay: Measurement of skin blood flow (non-invasive laser Doppler method) after topical application, Beispiel 13; format: in vivo, Ratten (Wister; hairless ); settings: 4 h after local application on abdominal skin of anaesthetised (Urethan) hairless rats, solvent Isopropylmyristat in Ethanol 5/95 v/v
Description: (§1) Messung der Hautdurchblutung
Die Hautdurchblutung wurde mit der nichtinvasiven Laser-Doppler Methode bestimmt. Die Messsungen wurden 4 Stunden nach der lokalen Applikation der Substanzen auf der Bauchhaut von narkotisierten ( Urethan ) haarlosen Ratten* durchgeführt. Als Lösungsmittel wurde Isopropylmyristat in Ethanol verwendet ( 5/95; v/v ).
* Für diese Untersuchungen wurden weibliche Ratten (Wister; hairless ) mit einem Körpergewicht von 200-250g verwendet.

Hairless Ratten = assay: Measurement of skin blood flow (laser Doppler flowmeter) after topical application, Beispiel 12; format: in vivo; settings: topical on abdomen of anaesthetised female hairless rats, solvent 5% Isopropylmyristat in Ethanol, measured 2 and 4 h after application (time not given)
Method: as §1
Hairless Ratten (weiblich) werden gewogen (200-250g), mit 0,5ml 25% Urethan in 0,9% NaCl /100g/kg (2/3 i.p., 1/3 s.c.) narkotisiert und auf eine vorgeheizte Wärmeplatte der Fa. Jowitherm gelegt.
Auf dem Abdomen wird eine kreisförmige Fläche von 34mm Durchmesser ca. 2cm unterhalb der Sternumspitze markiert. Pro Tier wird eine Testsubstanz appliziert, die mit dem Randomisierungsprogramm RDRK zugeordnet wurde. Als Lösungsmittel wird 5% Isopropylmyristat in Ethanol verwendet. […] der jeweiligen Testlösung werden mit einer Eppendorf-Pipette gleichmäßig aufgetragen. Danach wird die behandelte Haut nochmals in drei Meßflächen von jeweils 18mm Druchmesser unterteilt und markiert. Die Hautdurchblutung wird 2 und 4 Stunden ( und gegebenenfalls 6 Stunden) nach der Applikation mit einem Laser Doppler Flowmeter (Firma Perimed) gemessen. Es werden an jedem Tier Dreifachmessungen an den markierten Stellen durchgeführt.

[1] = applied concentration 0,001 Prozent
[2] = applied concentration 0,003 Prozent

Row | SMILES | Steigerung der Hautdurchblutung in Prozent (haarlosen Ratten; [1]) | Steigerung der Hautdurchblutung in Prozent (haarlosen Ratten; [2]) | Steigerung der Hautdurchblutung in Prozent (Hairless Ratten; [1]) | Steigerung der Hautdurchblutung in Prozent (Hairless Ratten; [2])
1 | CC(C)OC(=O)COC/C=C\C[C@@H]1[C@@H](/C=C/[C@@H](O)C2CCCCC2)[C@H](O)C[C@H]1Cl [Beispiel 10, (5Z,13E)-(9R,11R,15S)-9-Chlor-3-oxa-15-cyclohexyl-11,15-dihydroxy-16,17,18,19,20-pentanor-5,13-prostadiensäureisopropylester] | 232 Prozent | 307 Prozent | – | –
2 | O=C(COC/C=C\C[C@@H]1[C@@H](/C=C/[C@@H](O)C2CCCCC2)[C@H](O)C[C@H]1Cl)OCC(=O)c1ccccc1 [Beispiel 3, (5Z,13E)-(9R,11R,15S)-9-Chlor-3-oxa-15-cyclohexyl-11,15-dihydroxy-16,17,18,19,20-pentanor-5,13-prostadiensäurephenacylester] | – | – | 139 Prozent | 146 Prozent
3 | O=C(CCC/C=C\C[C@@H]1[C@@H](/C=C/[C@@H](O)C2CCCCC2)[C@H](O)C[C@H]1Cl)OCC(=O)c1ccccc1 [Beispiel 1, (5Z,13E)-(9R,11R,15S)-9-Chlor-15-cyclohexyl-11,15-dihydroxy-16,17,18,19,20-pentanor-5,13-prostadiensäurephenacylester] | – | – | 50 Prozent | 160 Prozent
4 | CCOC(=O)COC/C=C\C[C@@H]1[C@@H](/C=C/[C@@H](O)C2CCCCC2)[C@H](O)C[C@H]1Cl [Beispiel 9, (5Z,13E)-(9R,11R,15S)-9-Chlor-3-oxa-15-cyclohexyl-11,15-dihydroxy-16,17,18,19,20-pentanor-5,13-prostadiensäureethylester] | 200 Prozent | 325 Prozent | – | –
5 | CCOC(=O)CCC/C=C\C[C@@H]1[C@@H](/C=C/[C@@H](O)C2CCCCC2)[C@H](O)C[C@H]1Cl [Beispiel 6, (5Z,13E)-(9R,11R,15S)-9-Chlor-15-cyclohexyl-11,15-dihydroxy-16,17,18,19,20-pentanor-5,13-prostadiensäureethylester] | 115 Prozent | 197 Prozent | – | –
6 | CC(C)OC(=O)CCC/C=C\C[C@@H]1[C@@H](/C=C/[C@@H](O)C2CCCCC2)[C@H](O)C[C@H]1Cl [Beispiel 7, (5Z,13E)-(9R,11R,15S)-9-Chlor-15-cydohexyl-11,15-dihydroxy-16,17,18,19,20-pentanor-5,13-prostadiensäureisopropylester] | 93 Prozent | 183 Prozent | – | –
